According to patent US20240246931A1, “COMPOUNDS AS PD1/PD-L1 INHIBITORS AND METHODS THEREOF” (JUBILANT PRODEL LLC, priority 2021, published 2024):
Structures can show the parent of a compound that is named as a salt.

Tests used:
[1] = Metabolic stability in mouse liver microsomes; format: in vitro ADME; conditions: mouse liver microsomes 1.0 mg/mL, compound 1 μM, NADPH, second number of HLM/MLM cell
Source text: (§1) Metabolic Stability in Liver Microsomes
(§2) The purpose of this experiment is to measure the metabolic half-life of NCEs in sub-cellular fractions such as human liver microsomes (HLM) or mouse liver microsomes (MLM). This provides an in vitro means to calculate intrinsic hepatic clearance, and to support the prediction of human pharmacokinetics. This approach has been successfully utilized at early phase of drug discovery projects, to provide SAR input for reducing metabolic instability and for predicting in vivo hepatic clearance.
(§3) Procedure: Potassium phosphate buffer (66.7 mM, pH 7.4) containing liver microsomes (mouse and human) (1.0 mg/mL) was pre-incubated separately with compound (1 μM) and positive control (verapamil, 1 μM) in a 37° C. water bath for 5 min. The reactions were initiated by adding 20 μL of 10 mM NADPH. Reactions without NADPH (0 and 30 min) were also incubated to rule out non-NADPH metabolism or chemical instability in the incubation buffer. All reactions were terminated using 200 μL of ice-cold acetonitrile containing internal standard at 0, 5, 15 and 30 min. The vials were centrifuged at 3000 rpm for 15 min. The supernatants thus obtained were analyzed on LC-MS/MS to monitor the disappearance of test compound.

[2] = Metabolic stability in human liver microsomes; format: in vitro ADME; conditions: human liver microsomes 1.0 mg/mL, compound 1 μM, NADPH, first number of HLM/MLM cell
Source text: as §1, §2, §3

PD-1/PD-L1 interaction = target: T1, PD-1/PD-L1 interaction (Homo sapiens, UniProt Q9NZQ7); experiment: PD-1/PD-L1 HTRF binding assay (CisBio kit); conditions: HTRF PD1/PD-L1 inhibition assay
T1 construct: purchased CisBio 63ADK000CPAPEG
Method in brief: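 HTRF kit assay: compound was preincubated 15 min with tagged PD-L1 and PD-1 proteins, then Eu-cryptate and XL665 anti-tag antibodies were added for 1 h at room temperature. Readout was the 665/620 nm ratio ×10^4. IC50 was binned as A <100 nM, B 100–500 nM, C >500 nM.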

T1 sequence (Q9NZQ7 19-238 limits assumed): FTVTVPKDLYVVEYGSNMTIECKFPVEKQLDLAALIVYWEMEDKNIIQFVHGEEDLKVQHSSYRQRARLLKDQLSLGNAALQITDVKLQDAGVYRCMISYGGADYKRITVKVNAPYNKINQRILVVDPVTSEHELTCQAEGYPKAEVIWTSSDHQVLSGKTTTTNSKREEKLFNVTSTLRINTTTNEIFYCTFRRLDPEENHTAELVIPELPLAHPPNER

Cc1c(COc2cc(OCc3cncc(C#N)c3)c(CN3CCCC[C@H]3CO)c3c2CCC3)cccc1-c1ccccc1 [Example 1, (S)-5-(((4-((2-(hydroxymethyl)piperidin-1-yl)methyl)-7-((2-methyl-[1,1′-biphenyl]-3-yl)methoxy)-2,3-dihydro-1H-inden-5-yl)oxy)methyl)nicotinonitrile]
MLM % remaining @ 30 min [1]: 83% | HLM % remaining @ 30 min [2]: 72% | IC50 (PD-1/PD-L1 interaction): < 100 nM

Cc1c(COc2cc(OCc3cccc(C#N)c3)c(CN3CCCC[C@H]3CO)c3c2CCC3)cccc1-c1ccccc1 [Example 2, (S)-3-(((4-((2-(hydroxymethyl)piperidin-1-yl)methyl)-7-((2-methyl-[1,1′-biphenyl]-3-yl)methoxy)-2,3-dihydro-1H-inden-5-yl)oxy)methyl)benzonitrile]
MLM % remaining @ 30 min [1]: 62% | HLM % remaining @ 30 min [2]: 58% | IC50 (PD-1/PD-L1 interaction): < 100 nM

N#Cc1cncc(COc2cc(OCc3cccc(-c4ccccc4)c3C#N)c3c(c2CN2CCC[C@H]2CO)CCC3)c1 [Example 3, (S)-5-(((7-((2-cyano-[1,1′-biphenyl]-3-yl)methoxy)-4-((2-(hydroxymethyl)pyrrolidin-1-yl)methyl)-2,3-dihydro-1H-inden-5-yl)oxy)methyl)nicotinonitrile]
MLM % remaining @ 30 min [1]: 14% | HLM % remaining @ 30 min [2]: 22% | IC50 (PD-1/PD-L1 interaction): < 100 nM

N#Cc1cccc(COc2cc(OCc3cccc(-c4ccccc4)c3C#N)c3c(c2CN2CCC[C@H]2CO)CCC3)c1 [Example 4, (S)-3-(((6-((3-cyanobenzyl)oxy)-7-((2-(hydroxymethyl)pyrrolidin-1-yl)methyl)-2,3-dihydro-1H-inden-4-yl)oxy)methyl)-[1,1′-biphenyl]-2-carbonitrile]
MLM % remaining @ 30 min [1]: 20/20% | HLM % remaining @ 30 min [2]: 20/20% | IC50 (PD-1/PD-L1 interaction): < 100 nM

N#Cc1cncc(COc2cc(OCc3cccc(-c4ccccc4)c3C#N)c3c(c2CN2CCCC[C@H]2CO)CCC3)c1 [Example 5, (S)-5-(((7-((2-cyano-[1,1′-biphenyl]-3-yl)methoxy)-4-((2-(hydroxymethyl)piperidin-1-yl)methyl)-2,3-dihydro-1H-inden-5-yl)oxy)methyl)nicotinonitrile]
MLM % remaining @ 30 min [1]: 13% | HLM % remaining @ 30 min [2]: 16% | IC50 (PD-1/PD-L1 interaction): < 100 nM

Cc1c(COc2cc(OCc3cncc(C#N)c3)c(CN3C[C@H](O)C[C@H]3CO)c3c2CCC3)cccc1-c1ccccc1 [Example 6]
MLM % remaining @ 30 min [1]: 87% | HLM % remaining @ 30 min [2]: 67% | IC50 (PD-1/PD-L1 interaction): < 100 nM

Cc1c(COc2cc(OCc3cccc(C#N)c3)c(CN3CCC[C@H]3CO)c3c2CCC3)cccc1-c1ccccc1 [Example 7, (S)-3-(((4-((2-(hydroxymethyl)pyrrolidin-1-yl)methyl)-7-((2-methyl-[1,1′-biphenyl]-3-yl)methoxy)-2,3-dihydro-1H-inden-5-yl)oxy)methyl)benzonitrile]
MLM % remaining @ 30 min [1]: 76% | HLM % remaining @ 30 min [2]: 66% | IC50 (PD-1/PD-L1 interaction): < 100 nM

Cc1c(COc2cc(OCc3cncc(C#N)c3)c(CN3CCC[C@H]3CO)c3c2CCC3)cccc1-c1ccccc1 [Example 8, (S)-5-(((4-((2-(hydroxymethyl)pyrrolidin-1-yl)methyl)-7-((2-methyl-[1,1′-biphenyl]-3-yl)methoxy)-2,3-dihydro-1H-inden-5-yl)oxy)methyl)nicotinonitrile]
MLM % remaining @ 30 min [1]: 85% | HLM % remaining @ 30 min [2]: 61% | IC50 (PD-1/PD-L1 interaction): < 100 nM

Cc1c(COc2cc(OCc3cncc(C#N)c3)c(CN3CCOC[C@H]3CO)c3c2CCC3)cccc1-c1ccccc1 [Example 9, (R)-5-(((4-((3-(hydroxymethyl)morpholino)methyl)-7-((2-methyl-[1,1′-biphenyl]-3-yl)methoxy)-2,3-dihydro-1H-inden-5-yl)oxy)methyl)nicotinonitrile]
MLM % remaining @ 30 min [1]: 21% | HLM % remaining @ 30 min [2]: 8% | IC50 (PD-1/PD-L1 interaction): < 100 nM

Cc1c(COc2cc(OCc3cncc(C#N)c3)c(CN3CCC3CO)c3c2CCC3)cccc1-c1ccccc1 (stereo not shown) [Example 10, 5-(((4-((2-(hydroxymethyl)azetidin-1-yl)methyl)-7-((2-methyl-[1,1′-biphenyl]-3-yl)methoxy)-2,3-dihydro-1H-inden-5-yl)oxy)methyl)nicotinonitrile]
MLM % remaining @ 30 min [1]: 70% | HLM % remaining @ 30 min [2]: 69% | IC50 (PD-1/PD-L1 interaction): < 100 nM

Cc1c(COc2cc(OCc3cncc(C#N)c3)c(CN3CC4(CCC3CO)CC4)c3c2CCC3)cccc1-c1ccccc1 (stereo not shown) [Example 11, 5-(((4-((6-(hydroxymethyl)-5-azaspiro[2.5]octan-5-yl)methyl)-7-((2-methyl-[1,1′-biphenyl]-3-yl)methoxy)-2,3-dihydro-1H-inden-5-yl)oxy)methyl)nicotinonitrile]
MLM % remaining @ 30 min [1]: 11% | HLM % remaining @ 30 min [2]: 21% | IC50 (PD-1/PD-L1 interaction): < 100 nM

N#Cc1c(COc2cc(OCC(F)(F)F)c(CN3CCCC[C@H]3CO)c3c2CCC3)cccc1-c1ccccc1 [Example 23, (S)-3-(((7-((2-(hydroxymethyl)piperidin-1-yl)methyl)-6-(2,2,2-trifluoroethoxy)-2,3-dihydro-1H-inden-4-yl)oxy)methyl)-[1,1′-biphenyl]-2-carbonitrile]
MLM % remaining @ 30 min [1]: 25% | HLM % remaining @ 30 min [2]: 27% | IC50 (PD-1/PD-L1 interaction): < 100 nM

Cc1c(COc2cc(OCC(F)(F)F)c(CN3CCCC[C@H]3CO)c3c2CCC3)cccc1-c1ccccc1 [Example 24, (S)-(1-((7-((2-methyl-[1,1′-biphenyl]-3-yl)methoxy)-5-(2,2,2-trifluoroethoxy)-2,3-dihydro-1H-inden-4-yl)methyl)piperidin-2-yl)methanol]
MLM % remaining @ 30 min [1]: 67% | HLM % remaining @ 30 min [2]: 72% | IC50 (PD-1/PD-L1 interaction): < 100 nM

Cc1c(COc2cc(OCc3cncc(C#N)c3)c(CN3CC4(CC4)C[C@H]3CO)c3c2CCC3)cccc1-c1ccccc1 [Example 25, (S)-5-(((4-((6-(hydroxymethyl)-5-azaspiro[2.4]heptan-5-yl)methyl)-7-((2-methyl-[1,1′-biphenyl]-3-yl)methoxy)-2,3-dihydro-1H-inden-5-yl)oxy)methyl)nicotinonitrile]
MLM % remaining @ 30 min [1]: 61% | HLM % remaining @ 30 min [2]: 45% | IC50 (PD-1/PD-L1 interaction): < 100 nM

Cc1c(COc2cc(OCc3cncc(C#N)c3)c(CN3CC[C@H]3CO)c3c2CCC3)cccc1-c1cnc2[nH]ccc2c1 [Example 72, (S)-5-(((4-((2-(hydroxymethyl)azetidin-1-yl)methyl)-7-((2-methyl-3-(1H-pyrrolo[2,3-b]pyridin-5-yl)benzyl)oxy)-2,3-dihydro-1H-inden-5-yl)oxy)methyl)nicotinonitrile]
IC50 (PD-1/PD-L1 interaction): 100 to 500 nM

Cc1ccc(-c2cccc(COc3cc(OCc4cncc(C#N)c4)c(CN4CCC4CO)c4c3CCC4)c2C)cc1 (stereo not shown) [Example 73, 5-(((7-((2,4′-dimethyl-[1,1′-biphenyl]-3-yl)methoxy)-4-((2-(hydroxymethyl)azetidin-1-yl)methyl)-2,3-dihydro-1H-inden-5-yl)oxy)methyl)nicotinonitrile]
IC50 (PD-1/PD-L1 interaction): 100 to 500 nM

Cc1c(COc2cc(OCc3cncc(C#N)c3)c(CN3CCC3CO)c3c2CCC3)cccc1-c1cnc2[nH]ccc2c1 (stereo not shown) [Example 74, 5-(((4-((2-(hydroxymethyl)azetidin-1-yl)methyl)-7-((2-methyl-3-(1H-pyrrolo[2,3-b]pyridin-5-yl)benzyl)oxy)-2,3-dihydro-1H-inden-5-yl)oxy)methyl)nicotinonitrile 2,2,2-trifluoroacetate]
IC50 (PD-1/PD-L1 interaction): > 500 nM

Cc1c(COc2cc(OCc3cncc(C#N)c3)c(CN3CCC3CO)c3c2CCC3)cccc1-c1ccc(C(C)(C)C)cc1 (stereo not shown) [Example 75, 5-(((7-((4′-(tert-butyl)-2-methyl-[1,1′-biphenyl]-3-yl)methoxy)-4-((2-(hydroxymethyl)azetidin-1-yl)methyl)-2,3-dihydro-1H-inden-5-yl)oxy)methyl)nicotinonitrile]
IC50 (PD-1/PD-L1 interaction): > 500 nM

Cc1c(COc2cc(OCc3cncc(C#N)c3)c(CN3CCC3CO)c3c2CCC3)cccc1-c1ccc(F)cc1 (stereo not shown) [Example 76, 5-(((7-((4′-fluoro-2-methyl-[1,1′-biphenyl]-3-yl)methoxy)-4-((2-(hydroxymethyl)azetidin-1-yl)methyl)-2,3-dihydro-1H-inden-5-yl)oxy)methyl)nicotinonitrile]
IC50 (PD-1/PD-L1 interaction): 100 to 500 nM

Cc1c(COc2cc(Oc3ccccc3)c(CN3CCC3CO)c3c2CCC3)cccc1-c1ccccc1 (stereo not shown) [Example 78, (1-((7-((2-methyl-[1,1′-biphenyl]-3-yl)methoxy)-5-phenoxy-2,3-dihydro-1H-inden-4-yl)methyl)azetidin-2-yl)methanol]
IC50 (PD-1/PD-L1 interaction): > 500 nM

CNC(=O)NCC1CCCN1Cc1c(OCc2cncc(C#N)c2)cc(OCc2cccc(-c3ccccc3)c2C)c2c1CCC2 (stereo not shown) [Example 80, 1-((1-((5-((5-cyanopyridin-3-yl)methoxy)-7-((2-methyl-[1,1′-biphenyl]-3-yl)methoxy)-2,3-dihydro-1H-inden-4-yl)methyl)pyrrolidin-2-yl)methyl)-3-methylurea formate]
IC50 (PD-1/PD-L1 interaction): < 100 nM
